Here are results for one molecule from EP4257135A1, “BENZIMIDAZOLE DERIVATIVES FOR PULMONARY ARTERIAL HYPERTENSION” (Justus-Liebig-Universität Gießen, priority 2022, dated 2023).

The assay has as its system MCT-PAH. Briefly: Monocrotaline-induced PAH rat model, right heart catheterisation and histology. It counts as in vivo, Ratten. The note with it: MCT-PAH rats, three times weekly for two weeks, intratracheal nebulisation 275 nmol/kg. An excerpt:
Um das therapeutische Potenzial der EP300/CREBBP-Hemmung in vivo weiter zu erforschen, haben die Erfinder Versuchstiere in drei verschiedenen Nagetiermodellen mit etablierter PAH mit der Substanz SGC-CBP30 behandelt, wobei SGC-CBP30 durch intra-tracheale Vernebelung über zwei Wochen lang dreimal wöchentlich verabreicht wurde. Es wurden folgende drei verschiedenen Nagetiermodelle für eine PAH (FHR-PAH, MCT-PAH und SuHx-PAH) getestet: • Fawn-hooded hypertensive Ratten (FHR): Das ist ein genetischer Rattenstamm, bei dem PAH im Alter spontan auftritt und der ähnliche PAH-Anomalien aufweist, wie sie bei IPAH bei Menschen nach 40 Wochen auftreten. • Durch Monocrotalin (MCT) induziertes PAH-Rattenmodell. • Ein SUGEN5416/chronische Hypoxie (SuHx)-Rattenmodell für PAH, bei dem die Ratten eine einmalige Injektion von SUGEN5416 erhielten und anschließend einer chronischen Hypoxie (10% O2) ausgesetzt wurden (SuHx-PAH).
Für die MCT-PAH wurden männlichen und weiblichen SD-Ratten (Sprague-Dawley-Ratten) subkutan 60 mg/kg MCT (Sigma, Katalog: C2401) injiziert, um PAH zu induzieren. Bei der SuHx-PAH erhielten SD-Ratten eine einmalige subkutane Injektion von SUGEN5416 (20 mg/kg) und wurden drei Wochen lang einer normobaren Hypoxie ausgesetzt, bevor sie für zwei Wochen an die Raumluft zurückkehrten. Zwei Wochen nach der MCT-Injektion bzw. drei Wochen nach der SUGEN5416-Injektion (sobald PAH festgestellt wurde) wurden die Ratten nach dem Zufallsprinzip in vier Gruppen eingeteilt und erhielten zwei Wochen lang dreimal wöchentlich entweder Vehikel (Verabreichung von 1 % Methylcellulose in destilliertem Wasser oder intratracheale Vernebelung von 4 % DMSO in PBS als Negativkontrolle), SGC-CBP30 (Verabreichung von 10 mg/kg in 1 % Methylcellulose + destilliertem Wasser) oder SGC-CBP30 (intratracheale Vernebelung von 275 nmol/kg in 4 % DMSO + PBS). Einjährige männliche und weibliche FHR-Ratten mit etablierter PAH wurden in dieselben vier Gruppen wie beim MCT-Modell eingeteilt und den selben Behandlungsmethoden unterzogen. Für die Vernebelung wurden die Ratten mit 3%igem Isofluran betäubt. Ein 16-Gauge-Katheter wurde in die Luftröhre eingeführt. Ein Vernebler (Aerogen) wurde an den Katheter angeschlossen, und für jede Behandlung wurde ein Volumen von 50 µl SGC-CBP30 oder dessen Vehikel (als Negativkontrolle) verabreicht. Nach zweiwöchiger Behandlung wurde eine Rechtsherzkatheteruntersuchung bei geschlossenem Thorax durchgeführt, um folgende hämodynamischen Daten zu erfassen: Systolischer Rechtsventrikulärer Druck (RVSP), mittlerer PA-Druck (mPAP), Herzzeitvolumen (CO) und Schlagvolumen (SV). Der Gesamtwiderstand der Lunge (TPR) wurde durch Division von mPAP durch CO ermittelt. Nach der hämodynamischen Messung wurden den Ratten Gewebeproben entnommen. Die Experimente wurden gemäß den Richtlinien des Canadian Council on Animal Care durchgeführt. Alle Protokolle wurden von der institutionellen Ethikkommission für Tiere (Tierschutzausschuss der Universität Laval) geprüft und genehmigt (Protokollnummer 2019-018-2). Alle Experimente folgten den Richtlinien für die präklinische Forschung bei PAH.
Der schwarze Balken zeigt 50 µm an. Die Daten sind als Mittelwert ± SD angegeben und die statistische Analyse wurde mit einem ungepaarten Student's t-Test durchgeführt. FHR, MCT und SU5416/chronische Hypoxie-Ratten: *P<0,05, **P<0,01 und ***P<0,001 gegenüber den mit Vehikel behandelten Gruppen. MCT-Rattenmodell: §P<0,05, §§P<0,01 und §§§P<0,001 gegenüber der unbehandelten Kontrollgruppe. • A: Schematische Darstellung des Versuchsaufbaus für die Behandlung von Fawn-hooded hypertensive Ratten (FHR) mit dem EP300/CREBBP-Inhibitor SGC-CBP30, der selektiv auf die Acetyltransferase EP300/CREBBP wirkt. […]

Regarding `COc1ccc(CCc2nc3cc(-c4c(C)noc4C)ccc3n2C[C@H](C)N2CCOCC2)cc1Cl` [SGC-CBP30, 2-[2-(3-Chloro-4-methoxyphenyl)ethyl]-5-(3,5-dimethyl-1,2-oxazol-4-yl)-1-[(S)-2-(morpholin-4-yl)propyl]-1H-benzimidazole], the CO entry is “verbesserten sich nach der Behandlung mit der Substanz SGC-CBP30 bei FHR-PAH und MCT-PAH signifikant”, the SV entry is given as “verbesserten sich nach der Behandlung mit der Substanz SGC-CBP30 bei FHR-PAH und MCT-PAH signifikant” and the “mediale Wanddicke der distalen PAs” value is “signifikant verringert”. Also, where the note is “start two weeks after MCT”, the RVSP result is listed as “signifikanten Senkung” and the mPAP result is on record as “signifikanten Senkung”. For the same molecule, the TPR result (mPAP divided by CO) is on record as “signifikanten Senkung”.
